Each structure is given as a SMILES string. Like-named read-outs stand apart in the source and are kept apart here. Bounds are passed on as bounds.

For data set [1], the target named is T1, Cathepsin B, purified from human liver (Homo sapiens, UniProt P07858).
T1 construct: Cathepsin B, purified from human liver; purchased Enzyme Systems Products (Dublin, Calif.); host or cells: human liver (tissue-purified)
Briefly: In vitro evaluation of inhibitors with purified cathepsin B. Type of data set: biochemical. The procedure:
Enzyme: Cathepsin B, purified from human liver, is from Enzyme Systems Products (Dublin, Calif.). The activity is 50 mU per ml at 30° C., in 52 mM sodium phosphate, pH 6.2, 31 mM DTT, 2.1 mM EDTA, with 0.2 mM Z—Arg—Arg-7-amino-4-trifluoromethyl-coumarin as a substrate. Specific activity is 8330 mU per mg protein. (1 mU=1 nmol per min.)
Substrate Boc—Leu—Arg—Arg-7-amino-4-trifluoromethyl-coumarin-2HBr is from Enzyme Systems Products (Dublin, Calif.) and is known to be a specific substrate for cathepsin B. A 20 mM solution is made in DMF and stored at […].
Candidate inhibitors are dissolved in DMF and diluted to 20 mM and stored at […]. Dilutions are made in assay buffer.
The percent inhibition and the inhibitor concentration at which the enzyme is 50% inhibited (IC50) are determined as follows. Five μl of assay buffer (50 mM potassium phosphate pH 6.2, 2 mM EDTA, 5 mM DTT) on ice for 30 min. The inhibition is initiated by the addition of […] inhibitor each to the 480 μl aliquots. The 485 μl aliquot with enzyme is used as a control and thus receives no inhibitor. The enzyme/inhibitor mixtures are incubated 10 min. on ice and assayed for cathepsin B activity as follows:
Cathepsin B assay: To 490 μl of pre-incubated inhibitor/enzyme mixtures in assay buffer in 0.5 ml cuvette at 37° is added 10 μl of the substrate. Final inhibitor concentrations become 2000 nM, 200 nM, and 20 nM for the 200 μM, 20 μM and 2 μM stock concentrations, respectively. Activity is followed by release of free AFC over 5 min. The change in fluorescence is (fluorescence units at t=6)−(fluorescence units at t=1) with a Perkin-Elmer LS-5B spectrofluorometer (ex=400 nm, em=505 nm). The percent inhibition is determined by comparing the change in fluorescence units of the three sample concentrations of inhibited enzyme to the change in fluorescence units of the control enzyme. The percent inhibition is calculated as:
100−(fl. units of sample/fl. units of control×100).
The IC50 is ascertained by plotting percent inhibition vs. inhibitor concentration on the log scale. The IC50 is the concentration of the inhibitor (nM) at which the enzyme is inhibited by 50%.

In another data set the test system is Pneumocystis carinii. Briefly: In vitro inhibition of Pneumocystis carinii in culture with human embryonic lung fibroblast monolayers. Type of data set: cell-based. As for the experimental part: The percent of inhibition is calculated as 100−(the number of P. carinii trophozoites in a treated cell culture/number of trophosites of the control)×100.
Methods. The drugs dissolved in dimethyl sulfoxide were diluted to concentrations of 10 μg/ml for compound 3 and […] for compound 9 in minimum essential medium used for the culture of human embryonic lung fibroblasts. […] Cell cultures in 24-well plates were innoculated with P. carinii trophozoites (final concentration, about 7×10^5 per ml) obtained from infected rat lungs. Each culture plate contained untreated and treated wells. Plates were incubated at 35° C. in a gas mixture of 5% O2, 10% CO2, 85% N2 for up to 7 days. Plates were sampled on days 1, 3, 5 and 7 by removal of 10 μl amounts after agitation of the cultures. The samples were placed on slides in 1-cm^2 areas, fixed in methanol and stained with Giemsa stain; and then they were examined microscopically as unknowns by two individuals. For each parameter there were four wells, making eight values for each parameter. Standard errors range from 3-13%. Cultures were spiked with fresh drugs on days 2, 4 and 6.

Data set [2] has as its system T. cruzi. Briefly: Inhibition of T. cruzi in infected cells, cell line BHK. Type of data set: cell-based. Conditions: days before cell monolayer is destroyed by infection; 20 μM, daily change of medium plus inhibitor. The procedure:
(§1) Survival time is measured in days before the cell monolayer is destroyed by the infection. Irradiated BHK and J774 cells (six well plates) were infected with T. cruzi and simultaneously treated with 20 μM (3 ml total volume) with daily change of culture medium+plus inhibitor).
(§2) Cultivation and preparation of T. cruzi. Cloned and uncloned populations were derived from the strains Brasil, and CA-I and are cryopreserved in liquid nitrogen. Axenically cultured epimastigotes are maintained in exponential growth phase by weekly passage in Brain Heart Infusion-Tryptose medium (BHT media as given in Cazzulo, Cazzulo, Martinez, and Cazzulo, Some Kinetic Properties of a Cysteine Proteinase (Cruzipain) from Trypanosoma Cruzi. 33 Mol. Biochem. Parasitol. 33-42 (1990)), supplemented with […] 10% (v/v) heat inactivated fetal calf serum (FCS). Different host cell lines (J774 mouse macrophage, BHK, etc.) are cultured with RPMI-1640 supplemented with 5% FCS at 37° in a humidified atmosphere containing 5% CO2. Trypomastigotes liberated from the host cells are used to infect new cultures for serial maintenance of the parasite in cell culture. The protocols used for the in vitro assays of cysteine protease inhibitors are essentially as described by Harth, Andrews, Mills, Engel, Smith, and McKerrow, Peptide-Fluoromethyl Ketones Arrest Intracellular Replication and Intercellular Transmission of Trypanosoma Cruzi. 58 Mol. Biochem. Parasitol. 17-24 (1993), with the exception that in some experiments, the host cells are irradiated (2400 RADs) before infection to prevent them from dividing.

Data set [3] has as its system T. cruzi. Nature of the data set: Inhibition of T. cruzi in infected cells, cell line J774. The data set is classed as cell-based. Conditions: days before cell monolayer is destroyed by infection; 20 μM, daily change of medium plus inhibitor. As for the experimental part:
as §1, §2

Setting [4] is: inhibitors with other heterocycles, read-out: IC5 Cathepsin B Inhibition.
Setting [5] is: purified cathepsin B, read-out: IC50 Cat B.

As for `CCC1OC(=O)C(OCC(=O)C(CCc2ccccc2)NC(=O)C(Cc2ccccc2)NC(=O)N2CCOCC2)=C1C` (centres unmarked), the IC50 in data set [1] (setting [4]) is 0.229 µM.
The same measure, in the same setting: as for `Cc1ccc2cccc(OCC(=O)[C@H](CCc3ccccc3)NC(=O)[C@H](Cc3ccccc3)NC(=O)N3CCOCC3)c2n1`, the figure is 0.219 µM; as for `Cc1cc(OCC(=O)[C@H](CCc2ccccc2)NC(=O)[C@H](Cc2ccccc2)NC(=O)N2CCOCC2)nc2ccccc12`, 0.282 µM; as for `O=C(COc1ncnc2ccccc12)[C@H](CCc1ccccc1)NC(=O)[C@H](Cc1ccccc1)NC(=O)N1CCOCC1`, 1.8 µM.
For the compound `O=C(COc1nc2ccccc2[nH]1)[C@H](CCc1ccccc1)NC(=O)[C@H](Cc1ccccc1)NC(=O)N1CCOCC1`, in data set [1] (setting [4]), the IC50 is 0.569 µM.
Regarding `O=C(COc1nccc2ccccc12)[C@H](CCc1ccccc1)NC(=O)[C@H](Cc1ccccc1)NC(=O)N1CCOCC1`, the IC50 in data set [1] (setting [4]) stood at 0.457 µM.
Turning to `Cc1cc(=O)oc2cc(OCC(=O)[C@H](CCc3ccccc3)NC(=O)[C@H](Cc3ccccc3)NC(=O)N3CCOCC3)ccc12`, the IC50 in data set [1] (setting [4]) came to 4.5 µM.
Same read-out and setting: under `O=C(COc1ccc2ccc(=O)oc2c1)[C@H](CCc1ccccc1)NC(=O)[C@H](Cc1ccccc1)NC(=O)N1CCOCC1` stands 4.5 µM; under `O=C(COc1cc2ccccc2o1)[C@H](CCc1ccccc1)NC(=O)[C@H](Cc1ccccc1)NC(=O)N1CCOCC1`, 0.252 µM.
Same read-out and setting: under `Cc1occc(=O)c1OCC(=O)[C@H](CCc1ccccc1)NC(=O)[C@H](Cc1ccccc1)NC(=O)N1CCOCC1` stands 0.385 µM; under `O=C(COc1nc2ccccc2s1)[C@H](CCc1ccccc1)NC(=O)[C@H](Cc1ccccc1)NC(=O)N1CCOCC1`, 21 µM.
Consider `O=C(COc1cccs1)[C@H](CCc1ccccc1)NC(=O)[C@H](Cc1ccccc1)NC(=O)N1CCOCC1`, for which, in data set [1] (setting [4]), the IC50 was determined as 79 µM.
Still for that read-out and setting: under `CCOC(=O)c1c(C)noc1OCC(=O)[C@H](CCc1ccccc1)NC(=O)[C@H](Cc1ccccc1)NC(=O)N1CCOCC1` stands 2.19 µM; under `C[n+]1ccc2ccccc2c1OCC(=O)[C@H](CCc1ccccc1)NC(=O)[C@H](Cc1ccccc1)NC(=O)N1CCOCC1`, 5.6 µM.
For `O=C1CC(=O)C(c2ccccc2)=C1OCC(=O)[C@H](CCc1ccccc1)NC(=O)[C@H](Cc1ccccc1)NC(=O)N1CCOCC1` [Compound 1, N-Morpholinecarbonyl-L-phenylalanyl-L-homophenylalanine-α-(4-oxy-5-phenyl-4-cyclopentene-1,3-dione) methyl ketone], in data set [1] (setting [5]), the IC50 worked out at 0.094 µM.
Still for that read-out and setting: as for `O=C1OC(C(O)CO)C(OCC(=O)C(CCc2ccccc2)NC(=O)C(Cc2ccccc2)NC(=O)N2CCOCC2)=C1O` [Compound 2, N-Morpholinecarbonyl-L-phenylalanyl-L-homophenylalanyl-α-(4-ascorbityl) methyl ketone], the figure is 0.141 µM.
As a reminder, the inhibition is the percentage by which the read-out fell short of the control. `Cc1cc(OCC(=O)[C@H](CCc2ccccc2)NC(=O)[C@H](Cc2ccccc2)NC(=O)N2CCOCC2)cc(=O)o1` [Compound 3, N-Morpholinecarbonyl-L-phenylalanyl-L-homophenylalanyl-α-(4-oxy-6-methyl-2-pyrone) methyl ketone]: in data set [1] (setting [5]), the IC50 is 0.112 µM. Besides, the inhibition at 10 µg/mL is 23% with Pneumocystis carinii (24 h, Day 1, 10 μg/ml for compound 3, 10 μM/ml for compound 9, read-out: Percent Inhibition, Day 1); 44% with Pneumocystis carinii (48 h, Day 2, 10 μg/ml for compound 3, 10 μM/ml for compound 9, read-out: Percent Inhibition, Day 2); 39% in the data set on Pneumocystis carinii (72 h, Day 3, 10 μg/ml for compound 3, 10 μM/ml for compound 9, read-out: Percent Inhibition, Day 3); 13% in the data set on Pneumocystis carinii (96 h, Day 4, 10 μg/ml for compound 3, 10 μM/ml for compound 9, read-out: Percent Inhibition, Day 4).
One may read the melting point as the temperature, or range, at which the solid turns liquid. In turn, `CC1CC(OCC(=O)C(CCc2ccccc2)NC(=O)C(Cc2ccccc2)NC(=O)N2CCOCC2)=CC(=O)O1` [Compound 4, N-Morpholinecarbonyl-L-phenylalanyl-L-homophenylalanyl-α-(4-oxy-5,6-dihydro-6-methyl-2H-pyran-2-one) methyl ketone] yielded a melting point of 74 to 78 °C. Also, the IC50 in data set [1] (setting [5]) was 0.567 µM.
The matching figures for `Cc1cc(OCC(=O)[C@H](CCc2ccccc2)NC(=O)[C@H](CC(C)C)NC(=O)N2CCOCC2)cc(=O)o1` [Compound 5]: 70 to 75 °C and 0.4 µM.
In turn, `O=C(COc1cc(=O)oc2ccccc12)[C@H](CCc1ccccc1)NC(=O)[C@H](Cc1ccccc1)NC(=O)N1CCOCC1` [Compound 6, N-Morpholinecarbonyl-L-phenylalanyl-L-homophenylalanyl-α-(4-oxy-coumarin) methyl ketone] gave a melting point of 115 to 119 °C. Further, the “Survival Time, Cell line BHK” value in the data set with T. cruzi [2] was ≥ 16 days. In addition, the “Survival Time, Cell line J774” value in the data set on T. cruzi [3] is ≥ 16 days. Further, the IC50 in data set [1] (setting [5]) worked out at 0.045 µM.
Compound `Cc1cc(OCC(=O)[C@H](CCCCN)NC(=O)[C@H](Cc2ccccc2)NC(=O)N2CCOCC2)cc(=O)o1` [Compound 7] yielded a melting point of 151 to 155 °C. Also, the IC50 in data set [1] (setting [5]) came out at 0.025 µM.
The matching figures for `COc1ccc(C[C@H](NC(=O)N2CCOCC2)C(=O)N[C@@H](CCCCN)C(=O)COc2cc(C)oc(=O)c2)cc1` [Compound 8]: 140 to 142 °C and 0.083 µM.
`O=C1OCC(OCC(=O)[C@H](CCc2ccccc2)NC(=O)[C@H](Cc2ccccc2)NC(=O)N2CCOCC2)=C1c1ccccc1` [Compound 9, N-Morpholinecarbonyl-L-phenylalanyl-L-homophenylalanyl-α-(4-oxy-3-phenyl-dihydrofuran-2-one) methyl ketone] yielded a melting point of 114 to 116 °C. In addition, the “Survival Time, Cell line BHK” value with T. cruzi [2] came to 6 days. The “Survival Time, Cell line J774” value in the data set with T. cruzi [3] turned out to be 4 days. Further, the IC50 in data set [1] (setting [5]) is 0.036 µM.
For the compound `COc1ccc(C[C@H](NC(=O)N2CCOCC2)C(=O)N[C@@H](CCCCN)C(=O)COC2=C(c3ccccc3)C(=O)OC2)cc1` [Compound 10, N-Morpholinecarbonyl-L-tryosyl (O-methyl)-L-lysyl-(4-oxy-3-phenyl-dihydrofuran-2-one) methyl ketone], the melting point is 140 to 142 °C. Also, in data set [1] (setting [5]), the IC50 amounted to 0.008 µM.
The matching figures for `NCCCC[C@H](NC(=O)[C@H](Cc1ccccc1)NC(=O)N1CCOCC1)C(=O)COC1=C(c2ccccc2)C(=O)OC1` [Compound 11, N-Morpholinecarbonyl-L-phenylalanyl-L-lysyl-α-(4-oxy-3-phenyl-dihydrofuran-2-one) methyl ketone]: 140 to 145 °C and 0.005 µM.
